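Results reflect a 48-hour exposure of cells in 96-well plates to compound at five concentrations. GI50 = concentration required for 50% inhibition of growth. The concentration for full growth arrest is given as TGI.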
Experiments:
Experiment in all cases: NCI-60 cell line screen, 48 h
SK-MEL-5 melanoma = test system: SK-MEL-5 melanoma
COLO 205 colon = test system: COLO 205 colon
BT-549 breast = test system: BT-549 breast
T-47D breast = test system: T-47D breast
RXF 393 renal = test system: RXF 393 renal
EKVX NSCLC = test system: EKVX NSCLC
HOP-92 NSCLC = test system: HOP-92 NSCLC
M14 melanoma = test system: M14 melanoma
K-562 leukemia = test system: K-562 leukemia
UO-31 renal = test system: UO-31 renal
UACC-62 melanoma = test system: UACC-62 melanoma
A549 NSCLC = test system: A549 NSCLC
PC-3 prostate = test system: PC-3 prostate
ACHN renal = test system: ACHN renal
MCF7 breast = test system: MCF7 breast
DU-145 prostate = test system: DU-145 prostate
786-0 renal = test system: 786-0 renal
MALME-3M melanoma = test system: MALME-3M melanoma
HOP-62 NSCLC = test system: HOP-62 NSCLC
HCT-15 colon = test system: HCT-15 colon
TK-10 renal = test system: TK-10 renal
SK-OV-3 ovarian = test system: SK-OV-3 ovarian
CAKI-1 renal = test system: CAKI-1 renal
OVCAR-5 ovarian = test system: OVCAR-5 ovarian
HCC-2998 colon = test system: HCC-2998 colon
CCRF-CEM leukemia = test system: CCRF-CEM leukemia
U251 CNS = test system: U251 CNS
HL-60(TB) leukemia = test system: HL-60(TB) leukemia
SN12C renal = test system: SN12C renal
OVCAR-8 ovarian = test system: OVCAR-8 ovarian

Question: Which GI50 (SK-MEL-5 melanoma) does the source give for `Cc1ccc(-c2ccc(SCC(=O)Nc3ccc(S(N)(=O)=O)cc3Br)nn2)cc1` here?
Answer: 13.1 µM

Question: What about the TGI (SK-MEL-5 melanoma) of the same compound?
Answer: 26.5 µM

Question: And the GI50 (COLO 205 colon)?
Answer: 17.4 µM

Question: And the TGI (COLO 205 colon)?
Answer: 41.2 µM

Question: And the GI50 (BT-549 breast)?
Answer: 15.7 µM

Question: What about the TGI (BT-549 breast) of the same compound?
Answer: 44.2 µM

Question: And the GI50 (T-47D breast)?
Answer: 10.6 µM

Question: What about the TGI (T-47D breast) of the same compound?
Answer: 34.3 µM

Question: What about the GI50 (RXF 393 renal) of the same compound?
Answer: 3.96 µM

Question: What about the TGI (RXF 393 renal) of the same compound?
Answer: 20.5 µM

Question: And the GI50 (EKVX NSCLC)?
Answer: 15.5 µM

Question: What about the TGI (EKVX NSCLC) of the same compound?
Answer: 31.3 µM

Question: And the GI50 (HOP-92 NSCLC)?
Answer: 2.97 µM

Question: And the TGI (HOP-92 NSCLC)?
Answer: 13.5 µM

Question: What about the GI50 (M14 melanoma) of the same compound?
Answer: 30.5 µM

Question: What about the TGI (M14 melanoma) of the same compound?
Answer: > 100 µM

Question: And the GI50 (K-562 leukemia)?
Answer: 36.3 µM

Question: What about the TGI (K-562 leukemia) of the same compound?
Answer: > 100 µM

Question: What about the GI50 (UO-31 renal) of the same compound?
Answer: 14.7 µM

Question: What about the TGI (UO-31 renal) of the same compound?
Answer: 28.6 µM

Question: What about the GI50 (UACC-62 melanoma) of the same compound?
Answer: 13.2 µM

Question: And the TGI (UACC-62 melanoma)?
Answer: 26.2 µM

Question: What about the GI50 (A549 NSCLC) of the same compound?
Answer: 15 µM

Question: What about the TGI (A549 NSCLC) of the same compound?
Answer: 30.9 µM

Question: What about the GI50 (PC-3 prostate) of the same compound?
Answer: 5.64 µM

Question: What about the TGI (PC-3 prostate) of the same compound?
Answer: 22.5 µM

Question: And the GI50 (ACHN renal)?
Answer: 12 µM

Question: And the TGI (ACHN renal)?
Answer: 24.4 µM

Question: What about the GI50 (MCF7 breast) of the same compound?
Answer: 15.4 µM

Question: What about the TGI (MCF7 breast) of the same compound?
Answer: 37.1 µM

Question: And the GI50 (DU-145 prostate)?
Answer: 13.3 µM

Question: And the TGI (DU-145 prostate)?
Answer: 32.1 µM

Question: And the GI50 (786-0 renal)?
Answer: 16.4 µM

Question: What about the TGI (786-0 renal) of the same compound?
Answer: 47 µM

Question: And the GI50 (MALME-3M melanoma)?
Answer: 13.7 µM

Question: What about the TGI (MALME-3M melanoma) of the same compound?
Answer: 28.8 µM

Question: What about the GI50 (HOP-62 NSCLC) of the same compound?
Answer: 6.99 µM

Question: And the TGI (HOP-62 NSCLC)?
Answer: 24.2 µM

Question: What about the GI50 (HCT-15 colon) of the same compound?
Answer: 11.3 µM

Question: What about the TGI (HCT-15 colon) of the same compound?
Answer: 23.4 µM

Question: What about the GI50 (TK-10 renal) of the same compound?
Answer: 17.6 µM

Question: And the TGI (TK-10 renal)?
Answer: 39.5 µM

Question: What about the GI50 (SK-OV-3 ovarian) of the same compound?
Answer: 15.1 µM

Question: What about the TGI (SK-OV-3 ovarian) of the same compound?
Answer: 29.3 µM

Question: What about the GI50 (CAKI-1 renal) of the same compound?
Answer: 12.3 µM

Question: What about the TGI (CAKI-1 renal) of the same compound?
Answer: 28.5 µM

Question: What about the GI50 (OVCAR-5 ovarian) of the same compound?
Answer: 15 µM

Question: And the TGI (OVCAR-5 ovarian)?
Answer: 32.4 µM

Question: What about the GI50 (HCC-2998 colon) of the same compound?
Answer: 11.5 µM

Question: What about the TGI (HCC-2998 colon) of the same compound?
Answer: 28.1 µM

Question: What about the GI50 (CCRF-CEM leukemia) of the same compound?
Answer: > 100 µM

Question: What about the TGI (CCRF-CEM leukemia) of the same compound?
Answer: > 100 µM

Question: And the GI50 (U251 CNS)?
Answer: 6.17 µM

Question: And the TGI (U251 CNS)?
Answer: 24 µM

Question: What about the GI50 (HL-60(TB) leukemia) of the same compound?
Answer: > 100 µM

Question: What about the TGI (HL-60(TB) leukemia) of the same compound?
Answer: > 100 µM

Question: What about the GI50 (SN12C renal) of the same compound?
Answer: 23.8 µM

Question: What about the TGI (SN12C renal) of the same compound?
Answer: 60 µM

Question: What about the GI50 (OVCAR-8 ovarian) of the same compound?
Answer: 13.3 µM
